Reference: PubChem BioAssay (NCI)
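Protocol summary: plate cells (96-well), add compound at 5 concentrations, incubate 48 h, interpolate endpoints linearly. GI50 is the concentration that inhibits growth by half. TGI: total growth inhibition.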

How the values were obtained:
Experiment in all cases: growth of human tumour cells (NCI), 48 h
[1] = tested on: KM12 colon
[2] = tested on: NCI-H460 lung
[3] = tested on: HOP-62 NSCLC
[4] = tested on: OVCAR-3 ovarian
[5] = tested on: SK-MEL-28 melanoma
[6] = tested on: SR leukemia
[7] = tested on: SNB-75 CNS
[8] = tested on: 786-0 renal
[9] = tested on: K-562 leukemia
[10] = tested on: HCC-2998 colon

Structure (SMILES)	TGI [1] [µM]	TGI [2] [µM]	TGI [3] [µM]	TGI [4] [µM]	TGI [5] [µM]	TGI [6] [µM]	TGI [7] [µM]	TGI [8] [µM]	TGI [9] [µM]	TGI [10] [µM]	GI50 [2] [µM]	GI50 [3] [µM]	GI50 [6] [µM]	GI50 [5] [µM]	GI50 [10] [µM]	GI50 [4] [µM]	GI50 [9] [µM]	GI50 [1] [µM]	GI50 [7] [µM]
COc1cc2nc3n(c(=O)c2cc1OC)CCCCC3	> 100	> 100	> 100	> 100	> 100	> 100	> 100	> 100	> 100										
O=C1C(Cl)C(c2ccc([N+](=O)[O-])cc2)N1n1cnc2ccccc2c1=O (centres undefined)	> 100	> 100	> 100	> 100	> 100		39	> 100	> 100	> 100									
COc1cc2c(cc1OC)-c1[nH]c3ccc([N+](=O)[O-])cc3c1CC(=O)N2	> 56.1	6.4	9.81	1.61	> 100		8.93	> 100	> 100	5.6									
O=C(CSc1nnc(-c2ccc(N=Cc3ccc(Cl)cc3)cc2)o1)Nc1cccc([N+](=O)[O-])c1	> 100	> 100	> 100		> 100	> 100	> 100	> 100	> 100										
COc1cccc(/C=N/NC(=O)CN(C)C)c1O	> 100	> 100	> 100	> 100	> 100			> 100	> 100	> 100									
CCc1n[nH]c(=O)n1N=C(c1ccccc1)c1ccccc1	> 100	> 100	> 100	> 100	> 100			> 100	> 100										
COc1ccc(C=NCCCN=Cc2ccc(OC)cc2O)c(O)c1	> 100	> 100	> 100	51.2	> 100	> 100	64.8	> 100	> 100										
CCCCc1c2c(nc3c1CCCC3=O)CCCC2	> 100	> 100	> 100	> 100	> 100	> 100		> 100	> 100	> 100									
Cc1cc(N)c2cc(NC(=O)Nc3ccc4nc(C)cc(N)c4c3)ccc2n1	> 100	> 100	> 100	> 100	> 100			> 100	> 100	> 100									
C=C(C)[C@@H]1CCC2=C(CC[C@]3(C)[C@@H]([C@@H](CCC=C(C)C)C(=O)O)[C@H](O)C[C@@]23C)[C@@]1(C)CCC(=O)O	> 100	> 100	> 100	> 100	> 100	> 100	> 100	> 100	> 100										
Brc1ccc(C[N+]23CN4CN(CN(C4)C2)C3)cc1	> 100	> 100	> 100	> 100	> 100		> 100	> 100	> 100	> 100									
Clc1ccc(Nc2nnc(CNc3ccc(-c4nnc(Nc5ccc(Cl)cc5)o4)cc3)o2)cc1	23.3	41.6	35.1	23.9	34.7		45.1	21.8	> 100	27.8									
CN(C)CCCN=c1c2ccccc2n(C)c2[nH]c(=O)n(C)c(=O)c12	42.4	11.5	29.9		26.8	9.3	21.5	> 64.8	> 52										
CN(C)C=Nc1c2c(nc3ccccc13)CCCC2			> 100	> 100	> 100	> 100	> 100	> 100	> 100										
COC(=O)C1=C(C)NC2=C(C(=O)c3ccccc32)C1c1cn[nH]c1-c1ccccc1 (centres undefined)	> 100	> 100	> 100	> 100	> 100	87.4	> 100	> 100	> 100										
O=C(c1cccnc1)N1N=C(c2ccc3c(c2)OCO3)CC1(O)c1cc(F)c(Cl)cc1Cl (centres undefined)	> 100	36.9	48.7	26.3	77.5	76.4	39.8	35.2	> 100										
O=C(NCCC1CN(S(=O)(=O)C(F)(F)F)c2ccccc21)OCc1ccccc1 (centres undefined)	> 100	> 100	> 100	> 100	> 100	> 100		> 100	> 100	> 100									
COc1ccccc1[C@@H]1CCC2CC[C@@H](c3ccccc3OC)[N+]21Cc1ccccc1 (some centres undefined)	7.03		13.3	10.7	22.3	7.07	8.65	15.4	12.7										

Structure (SMILES)	TGI [1] [µM]	TGI [2] [µM]	TGI [3] [µM]	TGI [4] [µM]	TGI [5] [µM]	TGI [6] [µM]	TGI [7] [µM]	TGI [8] [µM]	TGI [9] [µM]	TGI [10] [µM]	GI50 [2] [µM]	GI50 [3] [µM]	GI50 [6] [µM]	GI50 [5] [µM]	GI50 [10] [µM]	GI50 [4] [µM]	GI50 [9] [µM]	GI50 [1] [µM]	GI50 [7] [µM]
CCOC(=O)[C@@]12NN=N[C@@H]1[C@H]1CO[C@H](c3ccccc3)N1C2=O	35	20.5	30.6	24.5	19.5			30.3		25.7									
CC1=C(C(=O)NCCCN(CCO)CCO)CC(C(=O)NCCCN(CCO)CCO)=C(C)N1	> 100	> 100	> 100	> 100			80	> 100	> 100	> 100									
Nc1nc(N)c2nc(CNc3ccc(C(=O)NC(CCNC(=O)c4ccccc4C(=O)O)C(=O)O)cc3)cnc2n1 (centres undefined)	> 100	> 100	> 100	> 100	> 100	> 100	> 100	> 100	> 100		0.0144	0.0635	0.00433						
COc1ccc(N2C(=O)C(=O)C3(CCCCC3)C2=O)c(OC)c1OC	> 100			> 100	> 100	> 100	> 100	> 100											
Cc1csc2c(=O)n(COCc3ccccc3)c(=O)[nH]c12	> 100	> 100	> 100	> 100	> 100	> 100	> 100	> 100	> 100										
O=C1C=CC(=O)[C@H]2C3C=CC(C4C3C3(Cl)C(Cl)=C(Cl)[C@]4(Cl)C3(Cl)Cl)[C@@H]12 (some centres undefined)	17	15.9	31.1	8.98	18.6	9.28	25	18.4	20.4										
COc1ccc2nc3c([N+](=O)[O-])ccc(NCCCN(C)C)c3c(N)c2c1	3.02	2.59	3.89	3	3.04	4.23	3.47	2.6	1.41										
Cc1cc2nc(CC(C(F)(F)F)C(F)(F)F)oc2cc1C	10.3	15.3	17.2	14.2	15.8		16.3			11.8									
COc1ccc(N2C(=O)C3C=CC(n4[nH]c(=O)n(Cc5ccccc5)c4=O)CC3C2=O)cc1 (centres undefined)	> 100	> 100	> 100	> 100	> 100		> 100	> 100	> 100	> 100									
CNC(=O)c1cc(Oc2cccc3nc(NC(=O)Nc4ccc(F)cc4F)ccc23)ccn1					> 50	> 50				> 50			0.41	1.42	> 50				
COc1cc(O)c2c(=O)c(OC)c(-c3ccc(OC)c(OC)c3)oc2c1.[Sn]		> 100	> 100	> 100	> 100		> 100	> 100	> 100	> 100		> 100		> 100	> 100	> 100	> 100		
COC1=CC(c2ccc[nH]2)=N/C1=C\c1[nH]c(C)c(C)c1CCC(=O)OCc1ccccc1	1.8	10.8	1.84	1.35		0.618	0.728				0.623	0.355	0.175			0.304		0.242	0.226
CC(C)(/C=N/O)/[N+]([O-])=C/c1ccccc1	> 100	> 100	> 100	> 100	> 100		> 100	> 100		> 100									
CP(=O)(O)C(N)c1ccccc1 (centres undefined)	> 100	> 100	> 100	> 100	> 100	> 100		> 100	> 100										
c1ccc(Sc2nc(Sc3ccccc3)nc(Sc3ccccc3)n2)cc1	29.4	> 100	> 100	34.5	> 100	> 100			> 100	37.8									
O=C1c2ccccc2C(=O)c2c(NCC3CO3)cccc21 (centres undefined)	> 76.3	> 100	> 100	> 45.8	> 63.7		> 100	> 47.9	17.3	> 100									
CCC1OC2C(CC=C(C)C)=C3OC(C)(O)C(C)(CC)C(=O)C3=C3OC(=O)C=C1C32 (centres undefined)	> 100	92.5			> 100			> 100	86.8	> 100									
